Key:
Experiment in all cases: radiometric filter-binding kinase assay
[1] = molecular target: MYLK (human) (UniProt Q15746)
[2] = molecular target: RPS6KA3 KD1 KD2 (human) (UniProt P51812)
[3] = molecular target: MAP3K7 TAB1 (human) (UniProt Q15750+O43318)
[4] = molecular target: JAK2 JH1 JH2 (human) (UniProt O60674)
[5] = molecular target: BRSK2 (human) (UniProt Q8IWQ3)
[6] = molecular target: MAP3K11 (human) (UniProt Q16584)
[7] = molecular target: BRSK1 (human) (UniProt Q8TDC3)
[8] = molecular target: MAP2K2 (human) (UniProt P36507)
[9] = molecular target: INSRR (human) (UniProt P14616)
Sequence of INSRR (human) (P14616 whole entry, looked up): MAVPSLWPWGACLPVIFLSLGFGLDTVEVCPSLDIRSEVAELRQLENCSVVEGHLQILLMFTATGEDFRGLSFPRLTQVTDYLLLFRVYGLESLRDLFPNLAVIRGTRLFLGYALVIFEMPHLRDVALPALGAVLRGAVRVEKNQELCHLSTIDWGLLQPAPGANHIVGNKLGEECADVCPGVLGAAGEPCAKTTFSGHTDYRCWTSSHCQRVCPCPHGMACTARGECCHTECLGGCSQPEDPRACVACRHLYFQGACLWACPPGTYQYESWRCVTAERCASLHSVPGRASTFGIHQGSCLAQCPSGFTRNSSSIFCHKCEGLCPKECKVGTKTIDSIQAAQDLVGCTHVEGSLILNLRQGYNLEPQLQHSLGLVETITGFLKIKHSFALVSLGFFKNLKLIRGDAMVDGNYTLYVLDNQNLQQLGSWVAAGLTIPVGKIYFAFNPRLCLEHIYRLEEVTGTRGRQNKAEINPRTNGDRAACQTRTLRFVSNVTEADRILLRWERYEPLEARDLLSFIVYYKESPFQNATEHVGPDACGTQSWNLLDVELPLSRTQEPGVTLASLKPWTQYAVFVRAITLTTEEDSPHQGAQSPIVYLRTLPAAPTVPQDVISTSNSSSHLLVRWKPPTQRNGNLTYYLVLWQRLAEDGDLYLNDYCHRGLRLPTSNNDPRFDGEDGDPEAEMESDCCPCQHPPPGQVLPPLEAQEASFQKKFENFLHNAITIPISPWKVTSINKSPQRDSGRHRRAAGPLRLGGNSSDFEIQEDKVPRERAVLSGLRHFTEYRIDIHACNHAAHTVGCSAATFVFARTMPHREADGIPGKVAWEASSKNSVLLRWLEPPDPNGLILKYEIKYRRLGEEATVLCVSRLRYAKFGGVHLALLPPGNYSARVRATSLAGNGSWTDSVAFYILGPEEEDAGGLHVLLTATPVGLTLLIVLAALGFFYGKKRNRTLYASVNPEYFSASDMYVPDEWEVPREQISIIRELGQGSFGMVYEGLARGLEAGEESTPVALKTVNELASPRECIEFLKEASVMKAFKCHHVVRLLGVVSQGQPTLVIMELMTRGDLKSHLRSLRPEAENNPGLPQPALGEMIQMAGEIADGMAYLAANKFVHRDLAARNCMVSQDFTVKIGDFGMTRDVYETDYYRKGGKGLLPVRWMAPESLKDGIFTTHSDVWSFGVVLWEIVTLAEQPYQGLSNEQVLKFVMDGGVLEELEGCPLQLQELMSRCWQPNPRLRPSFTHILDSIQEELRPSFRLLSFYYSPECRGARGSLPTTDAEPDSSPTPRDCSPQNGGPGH

[10] = molecular target: EPHA4 (human) (UniProt P54764)
[11] = molecular target: PLK1 (human) (UniProt P53350)
[12] = molecular target: CLK2 (human) (UniProt P49760)
[13] = molecular target: TBK1 (human) (UniProt Q9UHD2)
[14] = molecular target: TTK (human) (UniProt P33981)
[15] = molecular target: MAPK8 (human) (UniProt P45983)
[16] = molecular target: MELK (human) (UniProt Q14680)
[17] = molecular target: PIM1 (human) (UniProt P11309)
Sequence of PIM1 (human) (P11309 whole entry, looked up): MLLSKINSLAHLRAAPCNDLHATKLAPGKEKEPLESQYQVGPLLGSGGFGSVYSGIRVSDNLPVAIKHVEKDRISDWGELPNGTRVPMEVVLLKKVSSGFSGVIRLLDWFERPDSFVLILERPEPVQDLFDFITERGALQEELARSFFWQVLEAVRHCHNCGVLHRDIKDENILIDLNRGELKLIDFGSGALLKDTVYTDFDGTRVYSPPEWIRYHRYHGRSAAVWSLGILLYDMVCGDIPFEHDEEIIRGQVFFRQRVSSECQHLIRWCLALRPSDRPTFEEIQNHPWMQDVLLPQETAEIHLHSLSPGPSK

[18] = tested on: SGK1 (human), O00141 [S422D]
Sequence of SGK1 (human), O00141 [S422D] (O00141 whole entry S422D, looked up): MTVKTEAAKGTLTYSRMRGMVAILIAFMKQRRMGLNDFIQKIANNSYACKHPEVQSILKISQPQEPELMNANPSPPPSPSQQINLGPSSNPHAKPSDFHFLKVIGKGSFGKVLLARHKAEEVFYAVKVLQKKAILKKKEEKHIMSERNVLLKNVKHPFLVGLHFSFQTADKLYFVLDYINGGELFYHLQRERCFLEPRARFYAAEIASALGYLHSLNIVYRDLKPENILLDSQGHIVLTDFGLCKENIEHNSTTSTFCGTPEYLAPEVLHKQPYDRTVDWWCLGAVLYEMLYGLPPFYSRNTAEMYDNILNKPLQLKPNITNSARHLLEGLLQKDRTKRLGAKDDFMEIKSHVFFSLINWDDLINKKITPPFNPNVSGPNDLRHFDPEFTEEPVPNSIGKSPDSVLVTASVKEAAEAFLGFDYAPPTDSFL

[19] = molecular target: FLT1 (human) (UniProt P17948)
[20] = molecular target: CSK (human) (UniProt P41240)
[21] = molecular target: IRAK4 (human) (UniProt Q9NWZ3)
[22] = tested on: RPS6KB1 (human), P23443 [T412E]
[23] = molecular target: MAPK12 (human) (UniProt P53778)
Sequence of MAPK12 (human) (P53778 whole entry, looked up): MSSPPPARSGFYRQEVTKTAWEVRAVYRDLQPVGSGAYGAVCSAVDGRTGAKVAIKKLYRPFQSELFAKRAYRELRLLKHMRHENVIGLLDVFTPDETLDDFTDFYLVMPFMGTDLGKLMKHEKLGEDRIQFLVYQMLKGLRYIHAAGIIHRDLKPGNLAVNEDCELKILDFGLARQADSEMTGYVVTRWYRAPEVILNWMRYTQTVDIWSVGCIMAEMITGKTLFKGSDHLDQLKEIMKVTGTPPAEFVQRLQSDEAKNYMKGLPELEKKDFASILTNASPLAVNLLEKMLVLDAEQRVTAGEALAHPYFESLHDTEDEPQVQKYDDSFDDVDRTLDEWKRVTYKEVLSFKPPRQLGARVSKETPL

[24] = molecular target: CDK2 CCNA2 (human) (UniProt P20248+P24941)
[25] = molecular target: RIPK2 (human) (UniProt O43353)
[26] = tested on: PAK2 (human), Q13177 [T402E]
[27] = molecular target: MAPKAPK3 (human) (UniProt Q16644)
[28] = molecular target: MARK4 (human) (UniProt Q96L34)
[29] = molecular target: CSNK1D (human) (UniProt P48730)
[30] = molecular target: FGFR1 (human) (UniProt P11362)
Sequence of FGFR1 (human) (P11362 whole entry, looked up): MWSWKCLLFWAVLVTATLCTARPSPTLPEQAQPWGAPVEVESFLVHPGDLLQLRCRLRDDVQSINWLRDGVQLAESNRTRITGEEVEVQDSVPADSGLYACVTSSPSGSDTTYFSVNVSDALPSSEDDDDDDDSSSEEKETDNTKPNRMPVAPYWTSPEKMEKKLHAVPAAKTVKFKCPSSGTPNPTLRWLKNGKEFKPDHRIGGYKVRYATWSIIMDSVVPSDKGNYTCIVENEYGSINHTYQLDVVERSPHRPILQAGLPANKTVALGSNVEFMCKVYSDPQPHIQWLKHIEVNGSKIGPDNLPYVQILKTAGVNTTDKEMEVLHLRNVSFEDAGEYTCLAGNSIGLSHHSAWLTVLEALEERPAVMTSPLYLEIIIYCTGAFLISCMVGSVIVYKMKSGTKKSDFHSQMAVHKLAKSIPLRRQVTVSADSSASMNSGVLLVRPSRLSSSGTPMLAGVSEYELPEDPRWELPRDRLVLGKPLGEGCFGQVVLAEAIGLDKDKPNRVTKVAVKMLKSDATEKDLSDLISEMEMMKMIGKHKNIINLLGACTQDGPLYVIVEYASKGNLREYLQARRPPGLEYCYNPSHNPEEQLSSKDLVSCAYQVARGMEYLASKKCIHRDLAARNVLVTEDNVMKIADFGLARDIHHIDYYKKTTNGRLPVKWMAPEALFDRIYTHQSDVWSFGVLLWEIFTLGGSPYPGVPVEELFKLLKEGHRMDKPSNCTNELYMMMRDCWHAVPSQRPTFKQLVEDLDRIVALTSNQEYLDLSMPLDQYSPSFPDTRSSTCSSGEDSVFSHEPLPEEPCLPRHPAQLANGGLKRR

[31] = molecular target: PIM3 (human) (UniProt Q86V86)
[32] = molecular target: SYK (human) (UniProt P43405)
[33] = molecular target: INSR (human) (UniProt P06213)
Sequence of INSR (human) (P06213 whole entry, looked up): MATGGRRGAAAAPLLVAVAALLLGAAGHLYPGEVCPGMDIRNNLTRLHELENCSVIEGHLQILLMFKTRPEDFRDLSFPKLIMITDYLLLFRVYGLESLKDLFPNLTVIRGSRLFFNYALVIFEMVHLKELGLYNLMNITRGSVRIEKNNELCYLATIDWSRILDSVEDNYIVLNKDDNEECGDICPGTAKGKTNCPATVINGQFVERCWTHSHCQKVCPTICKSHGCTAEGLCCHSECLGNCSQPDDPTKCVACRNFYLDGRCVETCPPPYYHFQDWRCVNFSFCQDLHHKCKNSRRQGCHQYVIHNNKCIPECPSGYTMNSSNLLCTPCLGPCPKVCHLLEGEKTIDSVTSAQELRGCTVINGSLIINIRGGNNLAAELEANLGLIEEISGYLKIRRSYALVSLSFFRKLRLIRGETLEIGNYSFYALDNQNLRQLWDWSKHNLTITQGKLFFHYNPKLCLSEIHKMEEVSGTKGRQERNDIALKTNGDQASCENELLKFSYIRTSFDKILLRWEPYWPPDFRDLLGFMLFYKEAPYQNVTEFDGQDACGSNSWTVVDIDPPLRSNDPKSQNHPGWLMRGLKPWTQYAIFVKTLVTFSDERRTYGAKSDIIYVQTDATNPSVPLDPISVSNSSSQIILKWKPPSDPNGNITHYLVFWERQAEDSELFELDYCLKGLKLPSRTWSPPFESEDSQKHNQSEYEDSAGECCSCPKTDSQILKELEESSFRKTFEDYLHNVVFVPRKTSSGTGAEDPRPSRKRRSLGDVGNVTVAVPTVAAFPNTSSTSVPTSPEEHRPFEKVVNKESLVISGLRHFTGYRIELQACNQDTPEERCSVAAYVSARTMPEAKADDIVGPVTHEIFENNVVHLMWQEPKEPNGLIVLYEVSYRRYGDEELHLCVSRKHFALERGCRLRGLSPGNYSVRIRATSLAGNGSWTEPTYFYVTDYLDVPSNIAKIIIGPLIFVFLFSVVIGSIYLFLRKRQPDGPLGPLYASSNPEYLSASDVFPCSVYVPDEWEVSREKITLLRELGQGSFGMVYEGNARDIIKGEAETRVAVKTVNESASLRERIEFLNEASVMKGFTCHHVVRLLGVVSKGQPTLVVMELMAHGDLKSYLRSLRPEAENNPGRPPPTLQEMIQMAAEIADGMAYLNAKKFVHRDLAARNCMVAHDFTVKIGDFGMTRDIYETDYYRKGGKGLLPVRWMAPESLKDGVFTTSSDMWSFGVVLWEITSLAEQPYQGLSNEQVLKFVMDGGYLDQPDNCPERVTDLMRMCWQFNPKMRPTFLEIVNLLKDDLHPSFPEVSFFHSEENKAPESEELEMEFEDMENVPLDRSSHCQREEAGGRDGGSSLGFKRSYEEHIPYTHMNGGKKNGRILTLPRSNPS

[34] = molecular target: EPHB2 (human) (UniProt P29323)
[35] = molecular target: AURKA (human) (UniProt O14965)

O=C(Nc1ccccc1-c1cn2c(CN3CCNCC3)csc2n1)c1cnc2ccccc2n1
residual activity ([1]; compound 0.1 µM): 82% | residual activity ([1]; compound 1.0 µM): 27% | residual activity ([1]; compound 10.0 µM): 10% | residual activity ([2]; compound 1.0 µM): 84% | residual activity ([2]; compound 10.0 µM): 46% | residual activity ([3]; compound 1.0 µM): 91% | residual activity ([3]; compound 10.0 µM): 86% | residual activity ([4]; compound 1.0 µM): 90% | residual activity ([4]; compound 10.0 µM): 86% | residual activity ([5]; compound 0.1 µM): 86% | residual activity ([5]; compound 1.0 µM): 97% | residual activity ([5]; compound 10.0 µM): 90% | residual activity ([6]; compound 1.0 µM): 88% | residual activity ([6]; compound 10.0 µM): 56% | residual activity ([7]; compound 1.0 µM): 94% | residual activity ([7]; compound 10.0 µM): 87% | residual activity ([8]; compound 1.0 µM): 109% | residual activity ([8]; compound 10.0 µM): 90% | residual activity ([9]; compound 0.1 µM): 73% | residual activity ([9]; compound 1.0 µM): 77% | residual activity ([9]; compound 10.0 µM): 53% | residual activity ([10]; compound 1.0 µM): 78% | residual activity ([10]; compound 10.0 µM): 76% | residual activity ([11]; compound 0.1 µM): 84% | residual activity ([11]; compound 1.0 µM): 94% | residual activity ([11]; compound 10.0 µM): 104% | residual activity ([12]; compound 1.0 µM): 60% | residual activity ([12]; compound 10.0 µM): 18% | residual activity ([13]; compound 0.1 µM): 97% | residual activity ([13]; compound 1.0 µM): 91% | residual activity ([13]; compound 10.0 µM): 56% | residual activity ([14]; compound 1.0 µM): 85% | residual activity ([14]; compound 10.0 µM): 68% | residual activity ([15]; compound 0.1 µM): 116% | residual activity ([15]; compound 1.0 µM): 103% | residual activity ([15]; compound 10.0 µM): 86% | residual activity ([16]; compound 0.1 µM): 97% | residual activity ([16]; compound 1.0 µM): 74% | residual activity ([16]; compound 10.0 µM): 52% | residual activity ([17]; compound 0.1 µM): 40% | residual activity ([17]; compound 1.0 µM): 18% | residual activity ([17]; compound 10.0 µM): 10% | residual activity ([18]; compound 0.1 µM): 89% | residual activity ([18]; compound 1.0 µM): 94% | residual activity ([18]; compound 10.0 µM): 84% | residual activity ([19]; compound 0.1 µM): 90% | residual activity ([19]; compound 1.0 µM): 89% | residual activity ([19]; compound 10.0 µM): 53% | residual activity ([20]; compound 0.1 µM): 97% | residual activity ([20]; compound 1.0 µM): 85% | residual activity ([20]; compound 10.0 µM): 97% | residual activity ([21]; compound 1.0 µM): 63% | residual activity ([21]; compound 10.0 µM): 24% | residual activity ([22]; compound 0.1 µM): 86% | residual activity ([22]; compound 1.0 µM): 111% | residual activity ([22]; compound 10.0 µM): 61% | residual activity ([23]; compound 0.1 µM): 84% | residual activity ([23]; compound 1.0 µM): 95% | residual activity ([23]; compound 10.0 µM): 92% | residual activity ([24]; compound 0.1 µM): 88% | residual activity ([24]; compound 1.0 µM): 100% | residual activity ([24]; compound 10.0 µM): 115% | residual activity ([25]; compound 1.0 µM): 100% | residual activity ([25]; compound 10.0 µM): 95% | residual activity ([26]; compound 1.0 µM): 107% | residual activity ([26]; compound 10.0 µM): 108% | residual activity ([27]; compound 1.0 µM): 90% | residual activity ([27]; compound 10.0 µM): 100% | residual activity ([28]; compound 1.0 µM): 110% | residual activity ([28]; compound 10.0 µM): 85% | residual activity ([29]; compound 0.1 µM): 99% | residual activity ([29]; compound 1.0 µM): 106% | residual activity ([29]; compound 10.0 µM): 91% | residual activity ([30]; compound 0.1 µM): 103% | residual activity ([30]; compound 1.0 µM): 91% | residual activity ([30]; compound 10.0 µM): 68% | residual activity ([31]; compound 0.1 µM): 95% | residual activity ([31]; compound 1.0 µM): 55% | residual activity ([31]; compound 10.0 µM): 24% | residual activity ([32]; compound 0.1 µM): 109% | residual activity ([32]; compound 1.0 µM): 93% | residual activity ([32]; compound 10.0 µM): 67% | residual activity ([33]; compound 0.1 µM): 127% | residual activity ([33]; compound 1.0 µM): 101% | residual activity ([33]; compound 10.0 µM): 100% | residual activity ([34]; compound 1.0 µM): 82% | residual activity ([34]; compound 10.0 µM): 84% | residual activity ([35]; compound 1.0 µM): 102% | residual activity ([35]; compound 10.0 µM): 94%

From the kinase profiling compilation of Christmann-Franck et al. (2016)
